Consider 19 molecules from patent US20250320224A1 (DOMAIN THERAPEUTICS, priority 2022, published 2025).

Structures are written as SMILES. Structures can show the parent of a compound that is named as a salt.

The target of this test is T1, human PAR-2 (hPAR-2) receptor (Homo sapiens, UniProt P55085).
T1 construct: expressed in HEK-293 cells in an endogenous manner; endogenous in cells; host or cells: HEK-293
T1 sequence (P55085 26-397): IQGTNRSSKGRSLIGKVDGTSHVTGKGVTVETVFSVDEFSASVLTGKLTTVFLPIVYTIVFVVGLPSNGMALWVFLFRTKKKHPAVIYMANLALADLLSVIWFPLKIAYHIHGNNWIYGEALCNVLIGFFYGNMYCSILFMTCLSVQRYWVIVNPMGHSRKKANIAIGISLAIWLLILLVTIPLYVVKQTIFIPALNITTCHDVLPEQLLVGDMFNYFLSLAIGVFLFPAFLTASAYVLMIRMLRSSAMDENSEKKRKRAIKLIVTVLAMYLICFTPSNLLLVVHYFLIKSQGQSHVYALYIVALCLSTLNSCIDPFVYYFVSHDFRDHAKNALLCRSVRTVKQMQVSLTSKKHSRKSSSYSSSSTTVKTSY
In words: In vitro human PAR-2 functional antagonist activity using calcium assays. Format: cell-based. Conditions: hPAR-2 endogenously expressed in HEK-293 cells; stimulated by 2-Furoyl-LIGRLO-NH2 peptide; Fluo4AM intracellular calcium, FLIPR Tetra. The gist of the method:
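HEK-293 cells with endogenous hPAR-2 were loaded with Fluo4AM and read for intracellular Ca2+ on FLIPR. After 10 min with compound alone, cells were stimulated with 2-Furoyl-LIGRLO-NH2 at the concentration giving 80% of maximal response. Inhibition was then recorded over 5 min relative to buffer and agonist-only signals.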
On the technique in general: Calcium flux is commonly read through the fluorescence of an indicator in the cells.

On to `Cc1ccc(N2CC(C)(C)c3nc(C(=O)N4CCN(c5ccc(CC(=O)O)cn5)CC4(C)C)cnc32)cc1F` [Example 203, 2-(6-(4-(5-(3-fluoro-4-methylphenyl)-7,7-dimethyl-6,7-dihydro-5H-pyrrolo[2,3-b]pyrazine-2-carbonyl)-3,3-dimethylpiperazin-1-yl)pyridin-3-yl)acetic acid], for which the IC50 was below 500 nM.
As to `CC1(C)CN(c2ccc(Cl)c(F)c2)Cc2sc(C(=O)N3CCN(c4ccc(CC(=O)O)cn4)CC3(C)C)nc21` [Example 270, 2-(6-(4-(5-(4-chloro-3-fluorophenyl)-7,7-dimethyl-4,5,6,7-tetrahydrothiazolo[5,4-c]pyridine-2-carbonyl)-3,3-dimethylpiperazin-1-yl)pyridin-3-yl)acetic acid], the IC50 was in the range of 500 to 10000 nM.
For the molecule `CCCCCCCCCCCCCCCC(=O)N(C)CCN(C)C(=O)CCOCCOCCOCCNC(=O)CCOCCOCCOCCNC(=O)CCCCCCC(=O)N1CCN(C(=O)c2cnc3c(n2)C2(CN3c3ccc(Cl)c(F)c3)CC(C)(C)C2)C(C)(C)C1` [Example 261, N-(37-(4-(5′-(4-chloro-3-fluorophenyl)-3,3-dimethyl-5′,6′-dihydrospiro[cyclobutane-1,7′-pyrrolo[2,3-b]pyrazine]-2′-carbonyl)-3,3-dimethylpiperazin-1-yl)-3-methyl-4,17,30,37-tetraoxo-7,10,13,20,23,26-hexaoxa-3,16,29-triazaheptatriacontyl)-N-methylpalmitamide], the IC50 lay within 500 to 10000 nM.
With `CC(C)(O)CNC(=O)c1ccc2c(n1)C(C)(C)CN2c1ccc(Cl)c(F)c1` [Example 52, 1-(4-chloro-3-fluorophenyl)-N-(2-hydroxy-2-methylpropyl)-3,3-dimethyl-2,3-dihydro-1H-pyrrolo[3,2-b]pyridine-5-carboxamide], the IC50 was above 10000 nM.
Consider `Cc1cc(N2CCN(C(=O)c3ccc4c(n3)C3(CN4c4ccc(Cl)c(F)c4)CC(C)(C)C3)C(C)(C)C2)nc(C)c1C(=O)O` [Example 215, 6-(4-(1′-(4-chloro-3-fluorophenyl)-3,3-dimethyl-1′,2′-dihydrospiro[cyclobutane-1,3′-pyrrolo[3,2-b]pyridine]-5′-carbonyl)-3,3-dimethylpiperazin-1-yl)-2,4-dimethylnicotinic acid], for which the concentration for half-maximal inhibition (IC50) was below 500 nM.
With `CC1(C)CN(c2ccc(F)c(Cl)c2)c2ncc(C(=O)N3CCN(c4ccc(CC(=O)O)cn4)CC3(C)C)nc21` [Example 205, 2-(6-(4-(5-(3-chloro-4-fluorophenyl)-7,7-dimethyl-6,7-dihydro-5H-pyrrolo[2,3-b]pyrazine-2-carbonyl)-3,3-dimethylpiperazin-1-yl)pyridin-3-yl)acetic acid], the IC50 is below 500 nM.
As for `CC1(C)CN(c2ccc(Cl)c(F)c2)c2ccc(C(=O)N3CCN(c4nc(C(N)=O)cs4)CC3(C)C)nc21` [Example 83, 2-(4-(1-(4-chloro-3-fluorophenyl)-3,3-dimethyl-2,3-dihydro-1H-pyrrolo[3,2-b]pyridine-5-carbonyl)-3,3-dimethylpiperazin-1-yl)thiazole-4-carboxamide], the 50% inhibitory concentration (IC50) was below 500 nM.
Then `CC1(C)CN(c2ccc(Cl)c(F)c2)c2ccc(C(=O)N3CC[C@H](c4ccccn4)[C@H](C(=O)O)C3)nc21` (relative stereo) [Example 137, (cis)-1-(1-(4-chloro-3-fluorophenyl)-3,3-dimethyl-2,3-dihydro-1H-pyrrolo[3,2-b]pyridine-5-carbonyl)-4-(pyridin-2-yl)piperidine-3-carboxylic acid], with 500 to 10000 nM; and `Cc1cc(N2CCN(C(=O)c3cnc4c(n3)C3(CCCC3)CN4c3ccc(Cl)c(F)c3)C(C)(C)C2)nc(C)c1C(=O)O` [Example 207, 6-(4-(5′-(4-chloro-3-fluorophenyl)-5′,6′-dihydrospiro[cyclopentane-1,7′-pyrrolo[2,3-b]pyrazine]-2′-carbonyl)-3,3-dimethylpiperazin-1-yl)-2,4-dimethylnicotinic acid], with below 500 nM; and `Cc1nc(N2CCN(C(=O)c3ccc4c(n3)C(C)(C)CN4c3ccc(Cl)c(F)c3)C(C)(C)C2)ncc1C(=O)O` [Example 39, 2-(4-(1-(4-chloro-3-fluorophenyl)-3,3-dimethyl-2,3-dihydro-1H-pyrrolo[3,2-b]pyridine-5-carbonyl)-3,3-dimethylpiperazin-1-yl)-4-methylpyrimidine-5-carboxylic acid hydrochloride], with below 500 nM.
For `CC(C)CN1CC(C)(Cc2ccc(Cl)c(F)c2)c2ccc(C(=O)N3CCN(c4ccc(CC(=O)O)cn4)CC3(C)C)nc21` (stereo not shown) [Example 197, 2-(6-(4-(3-(4-chloro-3-fluorobenzyl)-1-isobutyl-3-methyl-2,3-dihydro-1H-pyrrolo[2,3-b]pyridine-6-carbonyl)-3,3-dimethylpiperazin-1-yl)pyridin-3-yl)acetic acid] the value was above 10000 nM; for `CC1(C)CN(c2ccc(Cl)c(F)c2)c2ccc(C(=O)N3CCN(c4nncs4)CC3(C)C)nc21` [Example 67, (1-(4-chloro-3-fluorophenyl)-3,3-dimethyl-2,3-dihydro-1H-pyrrolo[3,2-b]pyridin-5-yl)(2,2-dimethyl-4-(1,3,4-thiadiazol-2-yl)piperazin-1-yl)methanone], below 500 nM; for `Cc1cc(N2CCN(C(=O)c3cnc4c(n3)C3(CN4c4ccc(F)c(F)c4)CC(C)(C)C3)C(C)(C)C2)nc(C)c1C(=O)O` [Example 233, 6-(4-(5′-(3,4-difluorophenyl)-3,3-dimethyl-5′,6′-dihydrospiro[cyclobutane-1,7′-pyrrolo[2,3-b]pyrazine]-2′-carbonyl)-3,3-dimethylpiperazin-1-yl)-2,4-dimethylnicotinic acid], below 500 nM.
Turning to `Cc1ccc(N2CC(C)(C)c3nc(C(=O)N4CCN(c5ccc(CC(=O)O)cn5)CC4(C)C)cnc32)cc1Cl` [Example 251, 2-(6-(4-(5-(3-chloro-4-methylphenyl)-7,7-dimethyl-6,7-dihydro-5H-pyrrolo[2,3-b]pyrazine-2-carbonyl)-3,3-dimethylpiperazin-1-yl)pyridin-3-yl)acetic acid], the IC50 was below 500 nM.
Then `CC1(C)CN(c2ccc(Cl)c(F)c2)c2ccc(C(=O)N3CCN(c4ccc(CC(=O)O)cn4)CC3(C)C)nc2O1` [Example 265, 2-(6-(4-(1-(4-chloro-3-fluorophenyl)-3,3-dimethyl-2,3-dihydro-1H-pyrido[2,3-b][1,4]oxazine-6-carbonyl)-3,3-dimethylpiperazin-1-yl)pyridin-3-yl)acetic acid], with above 10000 nM.
`CC1(C)CC2(CN(c3ccc(Cl)c(F)c3)c3ncc(C(=O)N4CCN(C(=O)CCCCCCC(=O)O)CC4(C)C)nc32)C1` [Example 260, 8-(4-(5′-(4-chloro-3-fluorophenyl)-3,3-dimethyl-5′,6′-dihydrospiro[cyclobutane-1,7′-pyrrolo[2,3-b]pyrazine]-2′-carbonyl)-3,3-dimethylpiperazin-1-yl)-8-oxooctanoic acid]: the concentration for half-maximal inhibition (IC50) is below 500 nM.
For `CC1(C)CN(c2ccc(CC(=O)O)cn2)CCN1C(=O)c1cnc2c(n1)C1(CCCC1)CN2c1ccc(Cl)c(F)c1` [Example 243, 2-(6-(4-(5′-(4-chloro-3-fluorophenyl)-5′,6′-dihydrospiro[cyclopentane-1,7′-pyrrolo[2,3-b]pyrazine]-2′-carbonyl)-3,3-dimethylpiperazin-1-yl)pyridin-3-yl)acetic acid] the value was below 500 nM; for `Cc1cc(N2CCN(C(=O)c3cnc4c(n3)C3(CN4c4cc(F)c(F)c(F)c4)CC(C)(C)C3)C(C)(C)C2)nc(C)c1C(=O)O` [Example 235, 6-(4-(3,3-dimethyl-5′-(3,4,5-trifluorophenyl)-5′,6′-dihydrospiro[cyclobutane-1,7′-pyrrolo[2,3-b]pyrazine]-2′-carbonyl)-3,3-dimethylpiperazin-1-yl)-2,4-dimethylnicotinic acid], below 500 nM; for `Cc1cc(N2CCN(C(=O)c3ccc4c(n3)C3(CC(C)C3)CN4c3ccc(Cl)c(F)c3)C(C)(C)C2)nc(C)c1C(=O)O` (single isomer, unassigned) [Example 156, 6-(4-(1′-(4-chloro-3-fluorophenyl)-3-methyl-1′,2′-dihydrospiro[cyclobutane-1,3′-pyrrolo[3,2-b]pyridine]-5′-carbonyl)-3,3-dimethylpiperazin-1-yl)-2,4-dimethylnicotinic acid], below 500 nM.

For orientation: IC50 means the concentration that inhibits the measured activity by half.
